Laboratory results as given in patent US20110230472A1, “RING-FUSED AZOLE DERIVATIVE HAVING PI3K-INHIBITING ACTIVITY” (Shionogi & Co., Ltd., priority 2008, published 2011).

How the values were obtained:
[1] = biological target: PI-3 kinase γ (Homo sapiens, UniProt P48736); test: PI3Kγ inhibitory activity, PI3-kinase HTRF assay (inhibition ratio); type: biochemical; settings: 0.5 h; for inhibition at 50 µM: compound at 50 μM
Procedure, shortened: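 Single-concentration inhibition ratio (50 or 10 μmol/L compound) versus no-compound (100%) and no-enzyme (0%) wells. Reaction: PI-3 kinase γ, PIP2, ATP, MgCl2/DTT, 30 min at RT after 10 min preincubation. Read-out: HTRF 665/620 nm after 18 h detection.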

[2] = Solubility test; type: physicochemical; settings: kinetic from dmso stock; artificial intestinal juice pH 6.8, 1% DMSO, 25° C. for 16 hours
Method: The solubility of a compound was determined under a condition in which 1% DMSO was added. 10 mmol/L compound solution was prepared using DMSO, and then 6 μL of the compound solution was added to 594 μL of artificial intestinal juice in pH 6.8 (to 250 mL of 0.2 mol/L potassium dihydrogen phosphate reagent solution was added 118 mL of 0.2 mol/L NaOH reagent solution and water to provide a final volume of 1000 mL). After standing at 25° C. for 16 hours, the mixed solution was filtered with suction. The filtrate was diluted twice with methanol/water (1/1), and then a concentration in the filtration was measured with HPLC or LC/MS/MS by the absolute calibration method.

[3] = biological target: T1, CYP2C9 (Homo sapiens, UniProt P11712); test: CYP inhibition test, pooled human liver microsome, CYP2C9; type: in vitro ADME; settings: methyl-hydroxylation of tolbutamide
T1 construct: enzyme: pooled human liver microsome 0.2 mg protein/mL; from tissue; host or cells: pooled human liver microsome
Source text: (§1) O-de-ethylation of 7-ethoxyresorufin (CYP1A2), methyl-hydroxylation of tolbutamide (CYP2C9), 4′-hydroxylation of mephenyloin (CYP2C19), O-demethylation of dextromethorphan (CYP2D6), and hydroxylation of terfenadine (CYP3A4), which are typical substrate for metabolic reactions of human main CYP5 molecular species (CYP1A2, 2C9, 2C19, 2D6, and 3A4), were adopted as indexes.
(§2) The reaction conditions are as follows: substrate: 0.5 μmol/L of ethoxyresorufin (CYP1A2), 100 μmol/L of tolbutamide (CYP2C9), […] of S-mephenyloin (CYP2C19), 5 μmol/L of dextromethorphan (CYP2D6), and 1 μmol/L of terfenadine (CYP3A4); reaction time; 15 minutes; reaction temperature: 37° C.; enzyme: pooled human liver microsome 0.2 mg protein/mL; test drug concentration: 1, 5, 10, and 20 μmol/L (4 points).
(§3) In a 96-well plate, as a reaction solution, five kinds of substrates, a human liver microsome, and a test drug were added to 50 mmol/L Hepes buffer solution in the aforementioned ratio. A coenzyme NADPH was added to start a metabolic reaction, which is an index. After reacting at 37° C. for 15 minutes, a solution of methanol/acetonitrile (1/1 (v/v)) was added to quench the reaction. After centrifugation at 3000 rpm for 15 minutes, resorufin (CYP1A2 metabolite) in the supernatant was quantitated with a fluorescence multilabel counter, and hydroxylated tolbutamide (CYP2C9 metabolite), 4′-hydroxylated mephenyloin (CYP2C19 metabolite), […], terfenadine in alcohol form (CYP3A4 metabolite) were quantitated with LC/MS/MS.
(§4) The case wherein only DMSO (a solvent which dissolved a drug) was added to a reaction system was defined as a control (100%). When a test drug solution was added, the remaining activity (%) at each concentration was calculated, and then IC50 was calculated with a concentration and an inhibition ratio by an inverse estimation using a logistic model.

[4] = biological target: T2, CYP2C19 (Homo sapiens, UniProt P33261); test: CYP inhibition test, pooled human liver microsome, CYP2C19; type: in vitro ADME; settings: 4′-hydroxylation of mephenyloin
T2 construct: enzyme: pooled human liver microsome 0.2 mg protein/mL; from tissue; host or cells: pooled human liver microsome
Source text: as §1, §2, §3, §4

[5] = biological target: T3, CYP1A2 (Homo sapiens, UniProt P05177); test: CYP inhibition test, pooled human liver microsome, CYP1A2; type: in vitro ADME; settings: O-de-ethylation of 7-ethoxyresorufin
T3 construct: enzyme: pooled human liver microsome 0.2 mg protein/mL; from tissue; host or cells: pooled human liver microsome
T3 sequence (P05177 1-516): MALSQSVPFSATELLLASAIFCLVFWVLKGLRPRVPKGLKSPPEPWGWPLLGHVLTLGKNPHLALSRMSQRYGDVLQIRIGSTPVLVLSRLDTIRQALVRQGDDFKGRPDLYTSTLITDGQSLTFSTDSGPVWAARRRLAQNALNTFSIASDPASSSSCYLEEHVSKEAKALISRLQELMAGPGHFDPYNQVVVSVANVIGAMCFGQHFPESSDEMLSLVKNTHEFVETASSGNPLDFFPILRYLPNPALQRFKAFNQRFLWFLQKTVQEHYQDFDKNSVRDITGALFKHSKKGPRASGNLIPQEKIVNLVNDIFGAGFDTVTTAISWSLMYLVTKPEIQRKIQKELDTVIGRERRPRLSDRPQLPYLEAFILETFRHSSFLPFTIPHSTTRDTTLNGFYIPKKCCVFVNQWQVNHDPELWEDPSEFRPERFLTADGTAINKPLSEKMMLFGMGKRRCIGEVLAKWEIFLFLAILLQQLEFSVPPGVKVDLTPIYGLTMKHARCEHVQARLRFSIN
Source text: as §1, §2, §3, §4

[6] = biological target: T4, CYP2D6 (Homo sapiens, UniProt P10635); test: CYP inhibition test, pooled human liver microsome, CYP2D6; type: in vitro ADME; settings: O-demethylation of dextromethorphan
T4 construct: enzyme: pooled human liver microsome 0.2 mg protein/mL; from tissue; host or cells: pooled human liver microsome
Source text: as §1, §2, §3, §4

[7] = biological target: T5, CYP3A4 (Homo sapiens, UniProt P08684); test: CYP inhibition test, pooled human liver microsome, CYP3A4; type: in vitro ADME; settings: hydroxylation of terfenadine
T5 construct: enzyme: pooled human liver microsome 0.2 mg protein/mL; from tissue; host or cells: pooled human liver microsome
Source text: as §1, §2, §3, §4

[8] = Metabolic stability test; type: in vitro ADME; settings: human liver microsome 0.5 mg protein/mL, 1 mmol/L NADPH, 37° C.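 Also: 100% equals the compound amount at 0 min reaction.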
Method: After a subject compound was reacted for a certain time using a pooled human liver microsome commercially available, a reacted sample and an unreacted sample are compared to calculate a survival ratio, and then the degree of metabolism in the liver was evaluated.
0.2 mL of a buffer solution (50 mmol/L of Tris-HCl in pH 7.4, 150 mmol/L of potassium chloride, and 10 mmol/L of magnesium chloride) containing a human liver microsome of 0.5 mg protein/mL was reacted in the presence of 1 mmol/L NADPH at 37° C. for 0 or 30 minutes (oxidative reaction). After reacting, 50 μL of the reaction solution was added to 100 μL of a solution of methanol/acetonitrile (1/1 (v/v)), mixed, and then centrifuged at 3000 rpm for 15 minutes. The test compound in the supernatant was quantitated with LC/MS/MS. The amount of the compound at a reaction time of 0 minute was defined as 100% and, based on that, the percentage of the test compound remained after reacting for 30 minutes was calculated.

T4 sequence (P10635 whole entry): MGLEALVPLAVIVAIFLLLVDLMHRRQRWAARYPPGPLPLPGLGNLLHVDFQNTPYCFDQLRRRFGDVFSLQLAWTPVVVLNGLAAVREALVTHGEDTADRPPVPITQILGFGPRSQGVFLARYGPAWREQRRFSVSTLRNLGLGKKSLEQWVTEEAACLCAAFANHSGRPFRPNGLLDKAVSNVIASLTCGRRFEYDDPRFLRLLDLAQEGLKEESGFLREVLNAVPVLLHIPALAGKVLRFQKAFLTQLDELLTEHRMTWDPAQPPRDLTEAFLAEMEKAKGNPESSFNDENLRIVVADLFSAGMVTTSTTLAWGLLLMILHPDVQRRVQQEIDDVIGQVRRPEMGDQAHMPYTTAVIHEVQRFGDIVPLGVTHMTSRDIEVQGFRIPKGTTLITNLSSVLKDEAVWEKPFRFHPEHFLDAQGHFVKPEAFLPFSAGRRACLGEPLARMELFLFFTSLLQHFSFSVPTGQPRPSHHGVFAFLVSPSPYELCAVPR
Sequence of PI-3 kinase γ (P48736 whole entry): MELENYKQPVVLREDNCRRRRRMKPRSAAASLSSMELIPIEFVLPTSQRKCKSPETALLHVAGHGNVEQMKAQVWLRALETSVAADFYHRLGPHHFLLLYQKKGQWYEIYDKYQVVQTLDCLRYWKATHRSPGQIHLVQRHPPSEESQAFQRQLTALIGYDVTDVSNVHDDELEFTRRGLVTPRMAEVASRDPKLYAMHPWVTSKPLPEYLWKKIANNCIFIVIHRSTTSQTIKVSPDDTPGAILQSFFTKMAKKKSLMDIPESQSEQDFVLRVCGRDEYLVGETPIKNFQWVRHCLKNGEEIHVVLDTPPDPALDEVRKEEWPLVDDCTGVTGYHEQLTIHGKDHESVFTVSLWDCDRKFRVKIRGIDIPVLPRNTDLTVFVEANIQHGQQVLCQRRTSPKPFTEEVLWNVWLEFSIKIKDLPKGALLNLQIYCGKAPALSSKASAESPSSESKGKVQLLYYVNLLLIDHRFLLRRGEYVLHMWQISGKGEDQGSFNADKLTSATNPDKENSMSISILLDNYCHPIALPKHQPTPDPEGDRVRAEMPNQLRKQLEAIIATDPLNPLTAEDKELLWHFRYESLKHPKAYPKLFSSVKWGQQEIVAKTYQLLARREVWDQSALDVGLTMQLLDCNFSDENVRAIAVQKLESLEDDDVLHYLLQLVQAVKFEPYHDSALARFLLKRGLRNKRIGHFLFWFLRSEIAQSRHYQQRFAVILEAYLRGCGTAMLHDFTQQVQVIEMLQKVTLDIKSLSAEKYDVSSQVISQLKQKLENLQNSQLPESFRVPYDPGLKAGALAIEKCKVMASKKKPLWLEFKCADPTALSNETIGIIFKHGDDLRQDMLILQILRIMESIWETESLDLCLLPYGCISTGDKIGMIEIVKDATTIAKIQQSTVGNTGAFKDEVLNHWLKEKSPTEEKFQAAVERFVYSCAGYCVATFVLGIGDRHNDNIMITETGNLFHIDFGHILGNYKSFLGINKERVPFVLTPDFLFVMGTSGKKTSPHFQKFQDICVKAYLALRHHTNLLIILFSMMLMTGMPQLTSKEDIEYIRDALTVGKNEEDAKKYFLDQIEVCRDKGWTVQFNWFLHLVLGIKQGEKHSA
T1 sequence (P11712 whole entry): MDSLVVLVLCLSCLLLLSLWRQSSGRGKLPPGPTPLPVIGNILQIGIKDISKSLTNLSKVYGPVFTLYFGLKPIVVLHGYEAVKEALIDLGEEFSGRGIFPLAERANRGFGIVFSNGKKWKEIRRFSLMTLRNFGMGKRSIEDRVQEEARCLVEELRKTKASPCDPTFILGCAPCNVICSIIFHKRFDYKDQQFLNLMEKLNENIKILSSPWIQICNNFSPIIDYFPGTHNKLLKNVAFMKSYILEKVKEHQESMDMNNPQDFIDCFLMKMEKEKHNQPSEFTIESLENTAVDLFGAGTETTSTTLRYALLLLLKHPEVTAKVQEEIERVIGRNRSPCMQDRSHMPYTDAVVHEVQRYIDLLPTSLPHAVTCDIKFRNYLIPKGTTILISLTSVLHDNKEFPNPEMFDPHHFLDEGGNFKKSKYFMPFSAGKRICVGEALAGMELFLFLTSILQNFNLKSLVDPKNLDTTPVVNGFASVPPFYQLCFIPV
T2 sequence (P33261 whole entry): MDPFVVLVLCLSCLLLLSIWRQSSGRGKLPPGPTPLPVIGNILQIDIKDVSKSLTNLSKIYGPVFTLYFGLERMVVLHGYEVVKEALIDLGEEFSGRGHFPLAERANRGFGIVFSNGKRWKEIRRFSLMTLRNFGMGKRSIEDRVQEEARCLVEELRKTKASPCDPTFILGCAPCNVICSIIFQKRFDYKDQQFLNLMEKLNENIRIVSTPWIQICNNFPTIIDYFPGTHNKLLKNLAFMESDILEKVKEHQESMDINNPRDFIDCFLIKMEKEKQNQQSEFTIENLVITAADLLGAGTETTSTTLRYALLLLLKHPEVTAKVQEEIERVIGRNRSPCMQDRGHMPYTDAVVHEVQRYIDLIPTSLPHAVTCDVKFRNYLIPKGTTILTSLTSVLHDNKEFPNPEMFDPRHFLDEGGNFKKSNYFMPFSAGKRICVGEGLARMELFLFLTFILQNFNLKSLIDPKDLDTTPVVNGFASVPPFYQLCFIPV
T5 sequence (P08684 whole entry): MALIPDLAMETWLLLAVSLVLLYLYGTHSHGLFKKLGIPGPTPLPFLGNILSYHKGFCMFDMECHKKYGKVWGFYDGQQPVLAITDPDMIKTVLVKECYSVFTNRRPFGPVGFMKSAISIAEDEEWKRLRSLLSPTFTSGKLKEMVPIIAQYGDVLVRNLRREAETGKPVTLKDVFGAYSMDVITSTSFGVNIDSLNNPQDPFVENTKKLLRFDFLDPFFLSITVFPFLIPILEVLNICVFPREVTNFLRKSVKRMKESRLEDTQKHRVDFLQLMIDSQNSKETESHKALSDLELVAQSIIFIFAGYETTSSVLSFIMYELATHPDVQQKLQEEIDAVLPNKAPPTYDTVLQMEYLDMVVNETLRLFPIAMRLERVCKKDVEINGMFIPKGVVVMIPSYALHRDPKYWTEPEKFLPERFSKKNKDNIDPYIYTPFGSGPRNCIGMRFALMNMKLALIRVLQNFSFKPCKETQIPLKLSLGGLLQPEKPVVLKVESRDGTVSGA

SMILES | inhibition at 50 µM ([1]; PI3Kγ) [%] | solubility at 16 h [2] [µM] | IC50 [3] [µM] | IC50 [4] [µM] | IC50 [5] [µM] | IC50 [6] [µM] | IC50 [7] [µM] | percentage of the test compound remained after reacting for 30 minutes [8] [%] | inhibition at 10 µM ([1]; PI3Kγ, compound at 10 μM) [%] | inhibition at 10 µM ([1]; compound at 10 μmol/L) [%]
CNC(=O)Nc1cc2n(n1)CCN2c1cccc(OC)c1 [Compound I-61] | ≥ 95 | > 50 | – | – | – | – | – | – | – | –
CNC(=O)Nc1cc2n(n1)CCN2c1cc(Br)cc(C(=O)Nc2cccc(C(=O)O)c2)c1 [Compound I-187] | 94 | > 50 | > 20 | > 20 | > 20 | > 20 | > 20 | 98.9 | – | –
CNC(=O)Nc1cc2n(n1)CCN2c1ccc(C(=O)O)s1 [Compound I-217] | ≥ 95 | > 50 | > 20 | > 20 | > 20 | > 20 | > 20 | – | – | –
CN(C)C(=O)CCC(=O)Nc1cc2n(n1)CCN2c1cccc(Cl)c1 [Compound I-234] | ≥ 95 | – | > 20 | > 20 | > 20 | > 20 | > 20 | 98.3 | – | –
COc1cc(N2CCc3nc(NC(=O)NCCC(=O)N4CCC[C@H]4C(=O)O)sc3C2)nc(OC)n1 [Compound I-276] | – | > 50 | > 20 | > 20 | > 20 | > 20 | > 20 | 90.1 | ≥ 95 | –
CC(=O)Nc1cc2n(n1)CCN2c1ccc2c(c1)CCCN2.Cl.Cl [Compound I-319] | – | > 50 | – | – | – | – | – | – | – | ≥ 95
CN1CCc2cc(N3CCn4nc(NC(=O)CC5CCNC5)cc43)ccc2C1=O.Cl.Cl (stereo not drawn) [Compound I-356] | – | > 50 | > 20 | > 20 | > 20 | > 20 | > 20 | – | – | ≥ 95
CC(C)NC(=O)c1csc(C(=O)Nc2cc3n(n2)CCN3c2ccc3c(c2)CCN(C)C3=O)c1 [Compound I-402] | – | – | > 20 | > 20 | > 20 | > 20 | > 20 | – | – | 91
CC(C)NC(=O)c1ccc(C(=O)Nc2cc3n(n2)CCN3c2ccc3c(c2)CCN(C)C3=O)s1 [Compound I-407] | – | – | > 20 | > 20 | > 20 | > 20 | > 20 | 92.9 | – | ≥ 95
CN1CCc2cc(N3CCn4nc(NC(=O)c5ccc(C(=O)NCC#N)s5)cc43)ccc2C1=O [Compound I-409] | – | – | > 20 | > 20 | > 20 | > 20 | > 20 | 92.2 | – | ≥ 95
CN(C)C(=O)c1cc(C(=O)Nc2cc3n(n2)CCN3c2ccc3c(c2)CCN(C)C3=O)cs1 [Compound I-432] | – | – | > 20 | > 20 | > 20 | > 20 | > 20 | – | – | ≥ 95
CN1CCc2cc(N3CCn4nc(NC(=O)c5cnc(N6CCC[C@H]6C(=O)O)s5)cc43)ccc2C1=O [Compound I-536] | – | – | – | – | – | – | – | – | – | ≥ 95
CN1CCc2cc(N3CCn4nc(NC(=O)NCCC(=O)O)cc43)ccc2C1=O [Compound I-537] | – | – | – | – | – | – | – | – | – | 87
CC(C)CCNC(=O)CCNC(=O)Nc1cc2n(n1)CCN2c1ccc2c(c1)CCN(C)C2=O [Compound I-538] | – | – | – | – | – | – | – | – | – | 94
CN(C)C(=O)Nc1cc2n(n1)CCN2c1ccc2c(c1)CCN(C)C2=O [Compound I-539] | – | – | – | – | – | – | – | – | – | ≥ 95
COc1cc(N2CCc3nc(NC(=O)NCC4(C(=O)NC(C)C)CC4)sc3C2)nc(OC)n1 [Compound I-546] | – | – | – | – | – | – | – | – | – | 86
COc1cc(N2CCc3nc(NC(=O)NCC(C)C(=O)NC(C)C)sc3C2)nc(OC)n1 (stereo not drawn) [Compound I-547] | – | – | – | – | – | – | – | – | – | ≥ 95
COCCOc1ccc(C(=O)Nc2cc3n(n2)CCN3c2ccc3c(c2)CCN(C)C3=O)cc1 [Compound I-549] | – | – | – | – | – | – | – | – | – | ≥ 95
CC(C)NC(=O)c1ccccc1NC(=O)Nc1nc2c(s1)CN(C(=O)c1ccc(O)cc1)CC2 [Compound I-550] | – | – | – | – | – | – | – | – | – | 81
CC(C)CCOc1ccc(C(=O)Nc2cc3n(n2)CCN3c2ccc3c(c2)CCN(C)C3=O)cc1 [Compound I-551] | – | – | – | – | – | – | – | – | – | 84
COc1cc(N2CCc3nc(NC(=O)C4CCCCC4)sc3C2)nc(OC)n1 [Compound I-552] | – | – | – | – | – | – | – | – | – | 88
COc1nc(Cl)cc(N2CCc3nc(NC(=O)NCCC(=O)NC(C)C)sc3C2)n1 [Compound I-554] | – | – | – | – | – | – | – | – | – | 88
